This is an account of results in patent US20250381168A1, “VLA4 INHIBITORS AND USES THEREOF” (Washington University, priority 2022, published 2025).

Entries after “also recorded” stand apart in the source; their conditions may differ. Where two headings read alike, the source gives them in different places.

For one assay, the target named is VLA-4 (a4b1) (Homo sapiens (Human), UniProt P05556+P13612). In words: sVCAM flow cytometry cell-based assay (inhibition of soluble VCAM-1 binding to G2 ALL cells).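 Further: compounds at 0.1 to 1000 nM preincubated 30 min with G2 ALL cells, then VCAM/Fc added for 30 min, bound VCAM-1 detected by PE secondary antibody, percent binding cells by flow cytometry.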
Chain of VLA-4 (a4b1) (P13612 34-1032): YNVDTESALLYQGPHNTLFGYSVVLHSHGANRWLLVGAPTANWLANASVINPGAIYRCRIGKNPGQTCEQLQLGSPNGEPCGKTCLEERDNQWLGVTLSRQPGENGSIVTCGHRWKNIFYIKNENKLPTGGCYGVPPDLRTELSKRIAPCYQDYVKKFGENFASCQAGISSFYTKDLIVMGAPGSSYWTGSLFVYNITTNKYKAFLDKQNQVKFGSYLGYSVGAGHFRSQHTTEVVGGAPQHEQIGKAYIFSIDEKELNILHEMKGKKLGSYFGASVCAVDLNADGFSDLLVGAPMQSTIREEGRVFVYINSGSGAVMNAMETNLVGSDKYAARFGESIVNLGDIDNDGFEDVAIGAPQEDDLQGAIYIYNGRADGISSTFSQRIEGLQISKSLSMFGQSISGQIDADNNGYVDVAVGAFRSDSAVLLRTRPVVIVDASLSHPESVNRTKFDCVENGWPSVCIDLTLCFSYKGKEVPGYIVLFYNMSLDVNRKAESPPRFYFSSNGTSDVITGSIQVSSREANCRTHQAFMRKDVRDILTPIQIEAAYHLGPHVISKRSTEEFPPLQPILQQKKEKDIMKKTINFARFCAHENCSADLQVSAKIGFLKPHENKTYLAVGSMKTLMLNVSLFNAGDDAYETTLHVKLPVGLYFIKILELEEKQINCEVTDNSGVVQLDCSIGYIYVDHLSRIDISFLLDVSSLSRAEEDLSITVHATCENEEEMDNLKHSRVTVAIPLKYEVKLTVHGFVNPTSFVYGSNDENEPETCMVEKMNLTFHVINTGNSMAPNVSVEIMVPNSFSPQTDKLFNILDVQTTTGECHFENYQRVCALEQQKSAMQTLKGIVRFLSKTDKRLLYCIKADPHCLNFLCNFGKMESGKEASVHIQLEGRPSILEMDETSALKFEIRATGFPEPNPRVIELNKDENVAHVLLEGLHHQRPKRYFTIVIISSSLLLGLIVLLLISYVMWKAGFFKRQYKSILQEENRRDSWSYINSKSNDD
Chain of VLA-4 (a4b1) (P05556 21-798): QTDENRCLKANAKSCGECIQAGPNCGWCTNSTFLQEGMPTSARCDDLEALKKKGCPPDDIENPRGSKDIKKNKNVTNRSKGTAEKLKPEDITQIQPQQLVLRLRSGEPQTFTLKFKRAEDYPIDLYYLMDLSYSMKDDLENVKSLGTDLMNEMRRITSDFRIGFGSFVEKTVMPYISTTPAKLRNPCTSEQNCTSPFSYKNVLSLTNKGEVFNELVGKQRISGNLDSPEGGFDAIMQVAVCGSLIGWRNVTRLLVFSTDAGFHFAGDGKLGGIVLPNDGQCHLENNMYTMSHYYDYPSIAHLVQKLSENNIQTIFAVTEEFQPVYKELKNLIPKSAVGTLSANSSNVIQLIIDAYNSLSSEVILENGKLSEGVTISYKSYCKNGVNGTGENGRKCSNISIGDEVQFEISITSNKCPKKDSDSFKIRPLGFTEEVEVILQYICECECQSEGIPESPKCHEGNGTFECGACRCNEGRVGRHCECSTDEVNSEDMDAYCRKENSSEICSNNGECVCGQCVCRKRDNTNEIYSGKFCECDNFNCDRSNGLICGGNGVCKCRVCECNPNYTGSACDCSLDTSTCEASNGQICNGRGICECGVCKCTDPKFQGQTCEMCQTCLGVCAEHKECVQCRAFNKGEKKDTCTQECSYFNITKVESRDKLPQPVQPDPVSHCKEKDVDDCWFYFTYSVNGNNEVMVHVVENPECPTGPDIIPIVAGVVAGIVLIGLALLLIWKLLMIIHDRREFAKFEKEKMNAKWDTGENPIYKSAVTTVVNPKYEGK
The next assay addresses integrin a4b7 (Homo sapiens (Human), UniProt P13612+P26010). In words: a4b7 solid phase receptor assay (SPRA). To be noted: recombinant human a4b7 binding to plate-coated human VCAM1 (TABLE 4).
Assay [1] has as its system hematopoietic stem/progenitor cells (HSPCs). In words: HSPC mobilization into peripheral blood, colony forming unit (CFU) assay. On HSPC mobilization, result in words: test concentration or dose not given here. On No. CFU (×10^3)/mL ± SD, 6 hr: test concentration or dose not given here. The note with it: mice; for No. CFU (x10^3)/mL ± SD, 2 hr / No. CFU (x10^3)/mL ± SD, 4 hr / No. CFU (x10^3)/mL ± SD, 6 hr / No. CFU (x10^3)/mL ± SD, 8 hr: single injection; for No. CFU (x10^3)/mL ± SD, 2 hr: 2 hr post dose (TABLE 12); for No. CFU (x10^3)/mL ± SD, 4 hr: 4 hr post dose (TABLE 12); for No. CFU (x10^3)/mL ± SD, 6 hr: 6 hr post dose (TABLE 12); for No. CFU (x10^3)/mL ± SD, 8 hr: 8 hr post dose (TABLE 12).

The mark [2] stands for this setting: as listed in TABLE 10, read-out: sVCAM IC50.
The mark [3] stands for this setting: as listed in TABLE 12, read-out: sVCAM IC50.
Setting [4] is: inhibition of sVCAM-1 binding to human G2 ALL cells (TABLE 3), read-out: SVCAM-1, IC50.
[5] abbreviates: single dose, peripheral blood, 2 hr post dose (TABLE 10).
The mark [6] stands for this setting: single dose, peripheral blood, 4 hr post dose (TABLE 10).
[7] abbreviates: single dose, peripheral blood, 6 hr post dose (TABLE 10).

Chain of integrin a4b7 (P13612 34-970): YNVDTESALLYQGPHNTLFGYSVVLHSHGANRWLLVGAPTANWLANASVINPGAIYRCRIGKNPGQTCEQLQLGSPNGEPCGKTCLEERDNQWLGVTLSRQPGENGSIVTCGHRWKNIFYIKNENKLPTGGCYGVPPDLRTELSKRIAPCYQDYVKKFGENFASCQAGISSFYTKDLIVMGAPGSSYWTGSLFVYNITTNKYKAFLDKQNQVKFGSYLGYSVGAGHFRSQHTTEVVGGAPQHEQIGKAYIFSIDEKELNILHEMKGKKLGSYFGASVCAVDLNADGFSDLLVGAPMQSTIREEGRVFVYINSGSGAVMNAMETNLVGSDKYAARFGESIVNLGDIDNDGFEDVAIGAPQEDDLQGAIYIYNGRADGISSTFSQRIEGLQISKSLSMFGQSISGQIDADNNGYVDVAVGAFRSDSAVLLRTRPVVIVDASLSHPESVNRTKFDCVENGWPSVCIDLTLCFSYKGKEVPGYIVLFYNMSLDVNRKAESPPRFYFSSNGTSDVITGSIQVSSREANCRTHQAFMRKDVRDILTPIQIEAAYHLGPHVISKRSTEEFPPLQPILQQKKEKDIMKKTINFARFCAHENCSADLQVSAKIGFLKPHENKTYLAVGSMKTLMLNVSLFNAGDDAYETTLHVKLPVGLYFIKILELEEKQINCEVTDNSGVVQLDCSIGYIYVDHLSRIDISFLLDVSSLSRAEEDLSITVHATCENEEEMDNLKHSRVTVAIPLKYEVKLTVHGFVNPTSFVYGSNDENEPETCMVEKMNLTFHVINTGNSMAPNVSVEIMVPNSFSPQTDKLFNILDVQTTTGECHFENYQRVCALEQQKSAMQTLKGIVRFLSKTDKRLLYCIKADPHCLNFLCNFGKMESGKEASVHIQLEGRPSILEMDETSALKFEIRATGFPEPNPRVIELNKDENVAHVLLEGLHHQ
Chain of integrin a4b7 (P26010 20-723): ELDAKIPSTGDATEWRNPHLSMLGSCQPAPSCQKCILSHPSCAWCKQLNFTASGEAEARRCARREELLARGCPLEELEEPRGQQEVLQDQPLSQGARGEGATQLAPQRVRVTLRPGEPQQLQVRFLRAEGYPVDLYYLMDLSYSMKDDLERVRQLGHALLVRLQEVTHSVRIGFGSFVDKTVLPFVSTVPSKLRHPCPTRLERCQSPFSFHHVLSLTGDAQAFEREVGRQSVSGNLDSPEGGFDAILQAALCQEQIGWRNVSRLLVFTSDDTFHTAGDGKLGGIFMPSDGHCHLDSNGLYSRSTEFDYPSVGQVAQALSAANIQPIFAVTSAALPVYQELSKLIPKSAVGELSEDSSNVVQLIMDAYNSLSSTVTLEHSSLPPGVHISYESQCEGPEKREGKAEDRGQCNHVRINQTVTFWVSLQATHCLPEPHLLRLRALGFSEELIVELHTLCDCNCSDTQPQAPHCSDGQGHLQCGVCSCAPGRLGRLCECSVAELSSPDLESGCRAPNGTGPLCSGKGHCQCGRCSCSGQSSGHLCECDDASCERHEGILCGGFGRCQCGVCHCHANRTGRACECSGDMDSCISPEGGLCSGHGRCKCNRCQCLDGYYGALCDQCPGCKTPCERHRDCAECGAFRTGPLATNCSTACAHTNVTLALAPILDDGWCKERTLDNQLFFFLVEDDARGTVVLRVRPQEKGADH
Method for VLA-4 (a4b1): VLA-4 (a4b1) inhibitor compounds were tested for their ability to inhibit the binding of soluble VCAM-1 to human G2 acute lymphoblastic leukemia (ALL) cells. Briefly, G2 ALL cells are pre-incubated with increasing concentrations (0.1 to 1000 nM) of compounds for 30 minutes. Soluble VCAM/Fc chimera protein (R & D systems) is then added to the mixture and the cells incubated for an additional 30 minutes. Afterwards, cells are washed and VCAM-1 is detected using a PE-conjugated secondary polyclonal antibody. In each experiment, an aliquot of cells are stained with isotype control antibodies to serve as a negative control. The percentage of VCAM-1 binding cells was then determined by flow cytometry.
Method for integrin a4b7: Wells were washed 3 times with TBS+ and blocking buffer (TBS+ with 1% bovine serum albumin), the plate was incubated for 1 hr at 37° C., and then washed 3× with TBS+ buffer. Recombinant human a4b7 (R & D Systems) was diluted to 1 μg/ml in TBS+/0.1% bovine serum albumin. Test compounds were diluted into the integrin solution and added to the washed ligand-coated plate according to a standard template with each sample repeated in triplicate. After incubation for 2 hr at room temperature, the plate was washed 3× with 150 μl of TBS+ buffer. To each well, biotinylated anti-A4 antibody (R & D Systems) at 1 μg/ml in TBS+/0.1% BSA was added and the plate covered and incubated for 1 hr at room temperature. After washing the plate 3× with TBS+ buffer, streptavidin-conjugated horseradish peroxidase (R & D Systems) diluted in TBS+ blocking buffer was added to the wells and the plate incubated for 20 min at room temperature. The plate was washed 3× with TBS+ buffer followed by addition of 50 μl of TMB substrate (Sigma T4444). After incubation for 20 min at room temperature, plates were stopped with TMB stop solution (Sigma S5689) by colorimetric detection at 450 nm wavelength using a Tecan Safire II plate reader.

As to `COCCOCCOCCOCCOCCOCCOCCOCCOCCOCCOCCOCCOCCOCCOCCOCCOCCOCCOCCOCCOCCOCCOCCOCCOCc1cc(OC)c(-c2ccc(C[C@H](NC(=O)c3c(Cl)cc(C(=O)O)cc3Cl)C(=O)O)cc2)c(OC)c1` [Example C17, (S)-4-((1-carboxy-2-(2′,6′-dimethoxy-4′-(2,5,8,11,14,17,20,23,26,29,32,35,38,41,44,47,50,53,56,59,62,65,68,71,74-pentacosaoxapentaheptacontyl)-[1,1′-biphenyl]-4-yl)ethyl)carbamoyl)-3,5-dichlorobenzoic acid], the IC50 on VLA-4 (a4b1) (setting [2]) was 1.49 nM; at VLA-4 (a4b1) (setting [3]), 1.49 nM; on VLA-4 (a4b1) (as listed in TABLE 17, read-out: sVCAM IC50), 1.49 nM; on VLA-4 (a4b1) (setting [4]), 1.49 nM; on integrin a4b7 it was 1.5 nM. In addition, the “HSPC mobilization in the triple combination regimen with plerixafor and truncated Groβ” value in assay [1] is recorded as “does not extend mobilization out to 6 hours”. In addition, the “time to which HSPC mobilization is extended after a single dose” value in assay [1] was at most 2 h. The “No. CFU (×10^3)/mL ± SD, 2 hr” value is listed as 4.77 ± 1.21 (×10^3)/mL in assay [1] (alone or in combination with Plerixafor and tGroβ, peripheral blood, 2 hr (TABLE 17)); 3.67 ± 1.09 (×10^3)/mL in assay [1] (setting [5]). The “No. CFU (×10^3)/mL ± SD, 4 hr” value in assay [1] (alone or in combination with Plerixafor and tGroβ, peripheral blood, 4 hr (TABLE 17)) was 0.81 ± 0.26 (×10^3)/mL; in assay [1] (setting [6]) it was 0.57 ± 0.21 (×10^3)/mL. Besides, the “No. CFU (×10^3)/mL ± SD, 6 hr” value in assay [1] (alone or in combination with Plerixafor and tGroβ, peripheral blood, 6 hr (TABLE 17)) was 0.26 ± 0.13 (×10^3)/mL; in assay [1] (setting [7]), 0.28 ± 0.17 (×10^3)/mL. In assay [1] (single dose), the “HSPC mobilization, result in words” value is “returning to baseline by 4 hours and no mobilization at 6 hours; also recorded: does not extend mobilization; also recorded: do not provide for extended mobilization”. The “No. CFU (x10^3)/mL ± SD, 2 hr” value in assay [1] (peripheral blood) is listed as 4.32 ± 1.23 (x10^3)/mL. For the same molecule, in assay [1] (peripheral blood), the “No. CFU (x10^3)/mL ± SD, 4 hr” value is 1.21 ± 0.40 (x10^3)/mL. Besides, the “No. CFU (x10^3)/mL ± SD, 6 hr” value in assay [1] (peripheral blood) is 0.26 ± 0.07 (x10^3)/mL. Besides, in assay [1] (peripheral blood), the “No. CFU (x10^3)/mL ± SD, 8 hr” value is on record as 0.19 ± 0.09 (x10^3)/mL.
As for `COc1cccc(OC)c1-c1ccc(C[C@H](CC(=O)c2c(Cl)cc(C(=O)O)cc2Cl)C(=O)O)cc1` [Example C1], the IC50 at VLA-4 (a4b1) (as listed in TABLE 5, read-out: sVCAM IC50) was 4.9 nM; on VLA-4 (a4b1) (as listed in TABLE 7, read-out: sVCAM IC50), 4.9 nM; on VLA-4 (a4b1) (setting [3]) it was 4.9 nM; at VLA-4 (a4b1) (as listed in TABLE 20, read-out: sVCAM IC50), 4.9 nM; on VLA-4 (a4b1) (setting [4]), 4.98 nM; at integrin a4b7, 1.1 nM. Besides, the “time to which HSPC mobilization is extended after a single dose” value in assay [1] was at most 2 h. The “HSPC mobilization, result in words” value in assay [1] (single dose) is “have returned to baseline”; in assay [1] (single dose, listed as Comparator Compound 1), “returned to baseline by 4 hours”. The “No. CFU (×10^3)/mL ± SD, 0.5 hr” value in assay [1] (single dose, peripheral blood, 0.5 hr post dose (TABLE 7)) was 0.96 ± 0.33 (×10^3)/mL. Further, in assay [1] (single dose, peripheral blood, 1 hr post dose (TABLE 20)), the “No. CFU (×10^3)/mL ± SD, 1 hr” value was 2.16 ± 1.22 (×10^3)/mL. Also, the “No. CFU (×10^3)/mL ± SD, 2 hr” value in assay [1] (single dose, peripheral blood, 2 hr post dose (TABLE 7)) is 0.33 ± 0.14 (×10^3)/mL; in assay [1] (single s.c. injection, peripheral blood, 2 hr post dose (TABLE 5)) it was 0.86 ± 0.25 (×10^3)/mL. In addition, the “No. CFU (×10^3)/mL ± SD, 4 hr” value in assay [1] (single dose, peripheral blood, 4 hr post dose (TABLE 7)) is 0.08 ± 0.04 (×10^3)/mL; in assay [1] (single dose, peripheral blood, 4 hr post dose (TABLE 20)), 0.26 ± 0.18 (×10^3)/mL; in assay [1] (single s.c. injection, peripheral blood, 4 hr post dose (TABLE 5)), 0.27 ± 0.20 (×10^3)/mL. The “No. CFU (×10^3)/mL ± SD, 8 hr” value in assay [1] (single dose, peripheral blood, 8 hr post dose (TABLE 20)) is reported as 0.13 ± 0.10 (×10^3)/mL. Moreover, the “No. CFU (x10^3)/mL ± SD, 2 hr” value in assay [1] (peripheral blood) is recorded as 0.67 ± 0.12 (x10^3)/mL. Further, in assay [1] (peripheral blood), the “No. CFU (x10^3)/mL ± SD, 4 hr” value is 0.42 ± 0.14 (x10^3)/mL. For the same molecule, the “No. CFU (x10^3)/mL ± SD, 6 hr” value in assay [1] (peripheral blood) is on record as 0.26 ± 0.07 (x10^3)/mL. Further, the “No. CFU (x10^3)/mL ± SD, 8 hr” value in assay [1] (peripheral blood) was 0.22 ± 0.02 (x10^3)/mL. The “No. CFU (×10^3)/mL ± SD, 0.25 hr” value in assay [1] (single s.c. injection, peripheral blood, 0.25 hr post dose (TABLE 5)) was 3.98 ± 1.09 (×10^3)/mL.
`COCCOCCOCCOCCOCCOCCOCCOCCOCCOCCOCCOCCOCCOCCOCCOCCOCCOCCOCCOCCOCCOCCOCCOCCOCCOCCOCCOCCOCCOCCOCCOCCOCCOCCOCCOCCOCc1cc(OC)c(-c2ccc(C[C@H](NC(=O)[C@@H]3CCCN3S(=O)(=O)c3cc(Cl)cc(Cl)c3)C(=O)O)cc2)c(OC)c1` [Example 2]: the IC50 was 0.833 nM at VLA-4 (a4b1) (as listed in TABLE 9, read-out: sVCAM IC50); 0.833 nM at VLA-4 (a4b1) (setting [2]); 0.833 nM at VLA-4 (a4b1) (setting [4]); 5.4 nM on integrin a4b7. The “No. CFU (×10^3)/mL ± SD, 2 hr” value in assay [1] (single dose, peripheral blood, 2 hr post dose (TABLE 9)) is recorded as 4.10 ± 1.40 (×10^3)/mL; in assay [1] (setting [5]), 4.42 ± 1.41 (×10^3)/mL. Besides, the “No. CFU (×10^3)/mL ± SD, 4 hr” value is 4.98 ± 1.88 (×10^3)/mL in assay [1] (single dose, peripheral blood, 4 hr post dose (TABLE 9)) and 3.59 ± 0.93 (×10^3)/mL in assay [1] (setting [6]). Moreover, the “No. CFU (×10^3)/mL ± SD, 6 hr” value is on record as 1.87 ± 0.58 (×10^3)/mL in assay [1] (single dose, peripheral blood, 6 hr post dose (TABLE 9)) and 2.12 ± 0.84 (×10^3)/mL in assay [1] (setting [7]).
